Assay results reported in the NIST ThermoML archive (doi:10.1007/s10765-009-0648-5).

Experiment: wn = mass fraction of the nth substance listed
Settings: 101 kPa, Liquid

CCC[n+]1ccn(C)c1.[Br-] [1-methyl-3-propylimidazolium bromide] + CC#N
Settings | mass density, 288.15 K [kg/m3] | mass density, 293.15 K [kg/m3] | mass density, 298.15 K [kg/m3] | mass density, 303.15 K [kg/m3] | mass density, 308.15 K [kg/m3] | speed of sound, 288.15 K [m/s] | speed of sound, 293.15 K [m/s] | speed of sound, 298.15 K [m/s] | speed of sound, 303.15 K [m/s] | speed of sound, 308.15 K [m/s]
w1 = 0.0042 | 788.991 | 783.623 | 778.237 | 772.813 | 767.37 | 1320.2 | 1300.1 | 1280 | 1259.7 | 1239.6
w1 = 0.0061 | 789.726 | 784.364 | 778.979 | 773.562 | 768.119 | 1320.5 | 1300.3 | 1280.2 | 1260 | 1240.1
w1 = 0.0082 | 790.532 | 785.181 | 779.798 | 774.387 | 768.949 | 1321.1 | 1301.1 | 1281 | 1260.9 | 1240.8
w1 = 0.0107 | 791.47 | 786.115 | 780.735 | 775.331 | 769.896 | 1321.5 | 1301.3 | 1281.2 | 1261.1 | 1241.2
w1 = 0.0124 | 792.123 | 786.772 | 781.397 | 775.996 | 770.564 | 1322 | 1302 | 1281.9 | 1261.8 | 1241.7
w1 = 0.0161 | 793.533 | 788.186 | 782.814 | 777.417 | 771.996 | 1322.6 | 1302.5 | 1282.4 | 1262.3 | 1242.5
w1 = 0.0206 | 795.242 | 789.902 | 784.538 | 779.149 | 773.734 | 1323.5 | 1303.4 | 1283.4 | 1263.4 | 1243.5
w1 = 0.0251 | 796.939 | 791.606 | 786.248 | 780.864 | 775.46 | 1324.4 | 1304.3 | 1284.3 | 1264.4 | 1244.6
w1 = 0.0298 | 798.688 | 793.361 | 788.011 | 782.637 | 777.238 | 1325.3 | 1305.3 | 1285.3 | 1265.4 | 1245.6
w1 = 0.0347 | 800.578 | 795.262 | 789.919 | 784.553 | 779.16 | 1326.4 | 1306.5 | 1286.6 | 1266.7 | 1246.8
w1 = 0.0407 | 802.812 | 797.5 | 792.166 | 786.808 | 781.426 | 1327.3 | 1307.4 | 1287.5 | 1267.6 | 1248
w1 = 0.0493 | 806.071 | 800.772 | 795.452 | 790.107 | 784.738 | 1329.1 | 1309.3 | 1289.4 | 1269.6 | 1249.8
w1 = 0.0605 | 810.335 | 805.049 | 799.743 | 794.412 | 789.059 | 1331 | 1311.1 | 1291.3 | 1271.6 | 1252.1
w1 = 1 | 1323.47 | 1319.84 | 1316.22 | 1312.6 | 1308.97 | 1699.3 | 1685 | 1672 | 1659.9 | 1648.3

CCC[n+]1ccn(C)c1.[Br-] [1-methyl-3-propylimidazolium bromide] + CN(C)C=O
Settings | mass density, 288.15 K [kg/m3] | mass density, 293.15 K [kg/m3] | mass density, 298.15 K [kg/m3] | mass density, 303.15 K [kg/m3] | mass density, 308.15 K [kg/m3] | speed of sound, 288.15 K [m/s] | speed of sound, 293.15 K [m/s] | speed of sound, 298.15 K [m/s] | speed of sound, 303.15 K [m/s] | speed of sound, 308.15 K [m/s]
w1 = 0.006 | 955.471 | 950.721 | 945.962 | 941.197 | 936.424 | 1498.4 | 1479.2 | 1459.8 | 1440.5 | 1421.2
w1 = 0.0073 | 955.896 | 951.148 | 946.392 | 941.628 | 936.859 | 1498.7 | 1479.5 | 1460.1 | 1440.8 | 1421.5
w1 = 0.0101 | 956.834 | 952.089 | 947.339 | 942.58 | 937.812 | 1499.5 | 1480.2 | 1460.8 | 1441.4 | 1422.2
w1 = 0.012 | 957.413 | 952.669 | 947.92 | 943.162 | 938.398 | 1499.8 | 1480.3 | 1460.9 | 1441.6 | 1422.5
w1 = 0.0162 | 958.776 | 954.039 | 949.295 | 944.542 | 939.782 | 1500.8 | 1481.6 | 1462.2 | 1442.9 | 1423.7
w1 = 0.0204 | 960.154 | 955.416 | 950.675 | 945.932 | 941.175 | 1501.7 | 1482.2 | 1462.9 | 1443.6 | 1424.5
w1 = 0.0249 | 961.605 | 956.878 | 952.144 | 947.403 | 942.652 | 1502.7 | 1483.5 | 1464.2 | 1445 | 1425.8
w1 = 0.0303 | 963.324 | 958.602 | 953.872 | 949.136 | 944.395 | 1503.7 | 1484.4 | 1465.1 | 1445.9 | 1426.9
w1 = 0.0348 | 964.79 | 960.068 | 955.349 | 950.617 | 945.882 | 1504.8 | 1485.4 | 1466.2 | 1447 | 1428.1
w1 = 0.0405 | 966.57 | 961.858 | 957.139 | 952.415 | 947.684 | 1505.8 | 1486.5 | 1467.3 | 1448.2 | 1429.2
w1 = 0.0503 | 969.758 | 965.06 | 960.356 | 955.641 | 950.923 | 1507.8 | 1488.8 | 1469.7 | 1450.5 | 1431.6
w1 = 0.0586 | 972.333 | 967.639 | 962.94 | 958.234 | 953.523 | 1509.3 | 1490.1 | 1471 | 1452 | 1433.1
w1 = 1 | 1323.47 | 1319.84 | 1316.22 | 1312.6 | 1308.97 | 1699.3 | 1685 | 1672 | 1659.9 | 1648.3
